Like-named read-outs stand apart in the source and are kept apart here.
Legend:
Human recombinant PTP1B = biological target: T1, Human recombinant PTP1B (Homo sapiens, UniProt P18031); experiment: Inhibition of tri-phosphorylated insulin receptor dodecaphosphopeptide dephosphorylation by hPTP1B (malachite green); format: biochemical; conditions: recombinant PTP1B, dodecaphosphopeptide substrate
T1 construct: made in house
T1 sequence (P18031 1-435): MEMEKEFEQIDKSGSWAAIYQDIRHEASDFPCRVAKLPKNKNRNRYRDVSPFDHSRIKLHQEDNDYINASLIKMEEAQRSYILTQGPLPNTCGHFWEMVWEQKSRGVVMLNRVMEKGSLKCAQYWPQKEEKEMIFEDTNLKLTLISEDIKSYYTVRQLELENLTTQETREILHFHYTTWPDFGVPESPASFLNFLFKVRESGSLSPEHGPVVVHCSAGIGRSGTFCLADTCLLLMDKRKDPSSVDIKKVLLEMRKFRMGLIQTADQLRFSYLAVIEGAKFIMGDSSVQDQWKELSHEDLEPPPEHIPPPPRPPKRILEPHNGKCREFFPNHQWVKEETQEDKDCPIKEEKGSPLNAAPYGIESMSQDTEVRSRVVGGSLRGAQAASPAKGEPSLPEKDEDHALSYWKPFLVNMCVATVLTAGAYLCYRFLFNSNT

[1] = tested on: rat hepatic microsomal PTPases; experiment: Inhibition of tri-phosphorylated insulin receptor dodecaphosphopeptide dephosphorylation by rat hepatic PTPases (malachite green); format: biochemical; conditions: rat liver microsomal fraction; for % Change from Control: PTPase activity, compound at 50 µM; for IC50: % Change from Control
diabetic (ob/ob) mice = experiment: Blood glucose lowering in diabetic (ob/ob) mice; format: in vivo; conditions: Mus musculus, po, cells marked a = no significant activity (p<0.05) at this dose
[2] = read-out: % Change Insulin from Vehicle
[3] = plasma glucose, read-out: % Change Glucose from Vehicle

SMILES | IC50 (Human recombinant PTP1B) | % Change from Control [1] | IC50 [1] | change in vivo at 100 mg/kg (diabetic (ob/ob) mice; [2]) | change in vivo at 100 mg/kg (diabetic (ob/ob) mice; [3]) | change in vivo at 25 mg/kg (diabetic (ob/ob) mice; [3]) | change in vivo at 25 mg/kg (diabetic (ob/ob) mice; [2])
CCCCc1sc2ccccc2c1-c1ccc(-c2ccc(OC(Cc3ccccc3)C(=O)O)cc2)cc1 (centres unmarked) [Example 12, 2-[4'-(2-Butyl-benzo[b]thiopen-3-yl)-biphenyl-4-yloxy]-3-phenyl-propionic acid] | 176 nM | -50% |  | -15.8% | -27.5% |  | 
O=C(O)[C@@H](Cc1ccccc1)Oc1ccc(-c2ccc(-c3c(Cc4ccc(O)c(O)c4)sc4ccccc34)cc2)cc1 [Example 28, (2R)-2-{4'-[2-(3,4-Dihydroxy-benzyl)-benzo[b]thiophene-3-yl)-biphenyl-4-yloxy]-3-phenyl-propionic acid] | 122 nM |  | 20.6 µM |  |  | -20% | 
COc1ccc(-c2cc(-c3ccc(-c4c(Cc5ccccc5)sc5ccccc45)cc3)cc(-c3ccc(OC)cc3)c2OCC(=O)O)cc1 [Example 2] | 25 nM |  | 28.4 µM |  |  | -25.5% | 11.2%
COc1ccc(-c2cc(-c3ccc(-c4c(Cc5ccccc5)sc5ccccc45)cc3)cc(Br)c2OCC(=O)O)cc1 [Example 3] | 29 nM |  | 29.9 µM |  |  | -29.9% | 23.5%

Continued, in another order:

IC50 (Human recombinant PTP1B) | % Change from Control [1] | IC50 [1] | SMILES | change in vivo at 100 mg/kg (diabetic (ob/ob) mice; [2]) | change in vivo at 100 mg/kg (diabetic (ob/ob) mice; [3]) | change in vivo at 25 mg/kg (diabetic (ob/ob) mice; [3]) | change in vivo at 25 mg/kg (diabetic (ob/ob) mice; [2])
348 nM | -59% |  | O=C(O)[C@@H](Cc1ccccc1)Oc1ccc(-c2ccc(-c3c(Cc4ccccc4)oc4ccccc34)cc2)cc1 [Example 15, (2R)-2-[4'-(2-Benzyl-benzofuran-3-yl)-biphenyl-4-yloxy]-3-phenyl-propionic acid] | 4.1% | -35% |  | 
322 nM | -53% |  | O=C(O)[C@H](Cc1ccccc1)Oc1ccc(-c2ccc(-c3c(Cc4ccccc4)oc4ccccc34)cc2)cc1 [Example 1, (2S)-2-[4'-(2-Benzyl-benzofuran-3-yl)-biphenyl-4-yloxy]-3-phenyl-propionic acid] | 17% | -40.3% |  | 
270 nM | -61% |  | O=C(O)C(Cc1ccccc1)Oc1ccc(-c2ccc(-c3c(Cc4ccccc4)oc4ccccc34)cc2)cc1 (centres unmarked) [Example 11, 2-[4'-(2-Benzyl-benzofuran-3-yl)-biphenyl-4-yloxy]-3-phenyl-propionic acid] | -44.9% | -40.4% |  | 
440 nM | -72% |  | CCCCc1oc2ccccc2c1-c1ccc(-c2ccc(OC(Cc3ccccc3)C(=O)O)cc2)cc1 (centres unmarked) [Example 10, 2-[4'-(2-Butyl-benzofuran-3-yl)-biphenyl-4-yloxy]-3-phenyl-propionic acid] | -51.9% | -34.2% |  | 
123 nM |  | 21.4 µM | O=C(O)[C@@H](Cc1ccccc1)Oc1ccc(-c2ccc(-c3c(Cc4ccc(F)cc4)sc4ccccc34)cc2)cc1 [Example 19] | 1.1% | -27.7% |  | 

From patent publication EP1077967B1, “BIPHENYL OXO-ACETIC ACIDS USEFUL IN THE TREATMENT OF INSULIN RESISTANCE AND HYPERGLYCEMIA” (Wyeth, priority 1998, dated 1999)
